Results: patent US9266908B2, “Inhibitors of arginase and their therapeutic applications” (MARS, INCORPORATED, priority 2011, dated 2016)

Assays:
human arginase I (ARG I) = target: T1, human arginase I (ARG I) (Homo sapiens, UniProt P05089); assay: Inhibition of arginase I, spectrophotometric urea assay at 530 nm
T1 sequence (P05089 1-322): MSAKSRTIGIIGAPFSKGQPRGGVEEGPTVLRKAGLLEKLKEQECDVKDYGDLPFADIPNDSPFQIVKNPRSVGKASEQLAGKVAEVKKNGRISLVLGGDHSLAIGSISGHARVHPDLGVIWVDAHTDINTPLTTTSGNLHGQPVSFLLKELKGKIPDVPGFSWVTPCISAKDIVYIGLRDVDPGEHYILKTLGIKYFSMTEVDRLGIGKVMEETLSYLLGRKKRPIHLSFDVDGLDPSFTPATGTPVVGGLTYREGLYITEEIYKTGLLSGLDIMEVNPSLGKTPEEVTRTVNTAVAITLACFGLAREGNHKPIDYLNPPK
Experimental: (§1) Inhibition of arginase I (ARG I) and arginase II (ARG II) by the inventive compounds is followed spectrophotometrically at 530 nm. […] Solutions of arginase I and II are prepared in 100 mM sodium phosphate buffer, pH 7.4 containing 1 mg/ml of OVA to give an arginase stock solution at a final concentration of 100 ng/ml.
(§2) To each well of a 96-well microtiter plate is add 40 μl of enzyme, 10 μl of an inventive compound and 10 μl of enzyme substrate (L-arginine+ manganese sulfate). For wells that are used as positive controls, only the enzyme and its substrate are added, while wells used as negative controls contain only manganese sulfate.
(§3) After incubating the microtiter plate at 37° C. for 60 minutes, 150 μl of a urea reagent obtained by combining equal proportions (1:1) of reagents A and B is added to each well of the microtiter plate to stop the reaction. The urea reagent is made just before use by combining Reagent A (10 mM o-phthaldialdehyde, and 0.4% polyoxyethylene (23) lauryl ether (w/v) in 1.8 M sulfuric acid) with Reagent B (1.3 mM primaquine diphosphate, 0.4% polyoxyethylene (23) lauryl ether (w/v), 130 mM boric acid in 3.6 M sulfuric acid). After quenching the reaction mixture, the microtiter plate is allowed to stand for an additional 10 minutes at room temperature to allow color development. […] The normalized OD is then used to generate a dose-response curve by plotting the normalized OD values against log [concentration] and using regression analysis to compute the IC50 values.

arginase II (ARG II) = target: T2, arginase II (ARG II) (Homo sapiens, UniProt P78540); assay: Inhibition of arginase II, spectrophotometric urea assay at 530 nm
T2 sequence (P78540 23-354): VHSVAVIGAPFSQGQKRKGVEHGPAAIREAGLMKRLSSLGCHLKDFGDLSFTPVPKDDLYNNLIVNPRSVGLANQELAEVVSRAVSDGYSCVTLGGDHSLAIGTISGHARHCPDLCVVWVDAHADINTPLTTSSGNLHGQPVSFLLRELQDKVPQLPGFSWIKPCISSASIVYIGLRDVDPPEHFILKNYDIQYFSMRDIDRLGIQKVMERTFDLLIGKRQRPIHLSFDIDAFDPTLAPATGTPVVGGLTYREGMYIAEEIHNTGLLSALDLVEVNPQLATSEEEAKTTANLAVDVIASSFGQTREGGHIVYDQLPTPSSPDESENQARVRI
Experimental: as §1, §2, §3

human-Arginase-1 = target: T3, human-Arginase-1 (Homo sapiens, UniProt P05089); assay: Urea production in CHOK cells stably transfected with human-Arginase-1; format: cell-based; conditions: IC50 class, 5 mM arginine, 24 hours, read-out: CHOK Cell
T3 construct: expressed in transfected cells; host or cells: CHOK cells
T3 sequence (P05089 1-322): T1 sequence (P05089 1-322)
Experimental: Table 3 also provides CHOK cell based IC50 values for illustrative arginase inhibitors. IC50 values were determined by measuring the production of urea in CHOK cells stably transfected with human-Arginase-1.
Briefly, CHOK cells were stably transfected with human-arginase-1. To determiner the IC50 values for compounds in accordance with the present invention, parental CHOK cells and arginase-1 stably transfected cells were plated in a 96 well plate. Cells were plated using 200 μl of complete growth medium and incubated overnight at 37° C.
Media from each of the wells containing cells was first removed and growth media supplemented with arginine at a concentration of 5 mM was added to each well. The test compounds were dissolved in PBS buffer to the desired concentration and added to appropriate wells. The plate was then incubated at 37° C. for 24 hours. After 24 hours the plates were spun down at 3000 RPM for 5 min and 50 μl of the media were transferred to a new plate.
An aqueous solution of o-phthaldehyde, Brij, sulfuric acid, primaquine diphosphate and boric acid was added to each well and the plate was incubated for 10-15 minutes. The urea concentration in each well was determined by measuring the optical density at 520-530 nanometers using a standard curve. The IC50 values were calculated by measuring urea production at various concentrations of the inventive arginase inhibitors after subtracting the value related to the concentration of urea in control wells.

## Cc1ccc(F)c(-c2ccc(CN[C@H]3C[C@@H](C(N)(CCCCB(O)O)C(=O)O)C3)cc2F)c1 (mixture of isomers) [Example 52, (S)-2-amino-6-borono-2-((1s,3R)-3-((2,2′-difluoro-5′-methylbiphenyl-4-yl)methylamino)cyclobutyl)hexanoic acid]
Human arginase I (ARG I)
  IC50: 0.1 to 25 nM
Arginase II (ARG II)
  IC50: 0.1 to 25 nM
human-Arginase-1
  IC50: 1000 to 25000 nM

## NC(CCCCB(O)O)(C(=O)O)[C@H]1C[C@@H](NCc2ccc(-c3ccc(F)cc3)c(F)c2)C1 (mixture of isomers) [Example 53, (S)-2-amino-6-borono-2-((1s,3R)-3-((2,4′-difluorobiphenyl-4-yl)methylamino)cyclobutyl)hexanoic acid]
Human arginase I (ARG I)
  IC50: 0.1 to 25 nM
Arginase II (ARG II)
  IC50: 26 to 100 nM
human-Arginase-1
  IC50: 26000 to 100000 nM

## NC(CCCCB(O)O)(C(=O)O)[C@H]1C[C@@H](NCc2ccc(-c3ccccc3F)c(F)c2)C1 (mixture of isomers) [Example 54, (S)-2-amino-6-borono-2-((1s,3R)-3-((2,2′-difluorobiphenyl-4-yl)methylamino)cyclobutyl)hexanoic acid]
Human arginase I (ARG I)
  IC50: 26 to 100 nM
Arginase II (ARG II)
  IC50: 26 to 100 nM
human-Arginase-1
  IC50: 26000 to 100000 nM

## NC(CCCCB(O)O)(C(=O)O)[C@H]1C[C@@H](NCc2ccc(-c3ccc(F)cc3F)c(F)c2)C1 (mixture of isomers) [Example 55, (S)-2-amino-6-borono-2-((1s,3R)-3-((2,2′,4′-trifluorobiphenyl-4-yl)methylamino)cyclobutyl)hexanoic acid]
Human arginase I (ARG I)
  IC50: 26 to 100 nM
Arginase II (ARG II)
  IC50: 26 to 100 nM
human-Arginase-1
  IC50: 26000 to 100000 nM

## NC(CCCCB(O)O)(C(=O)O)[C@H]1C[C@@H](NCc2ccc(Cc3ccccc3)cc2)C1 (mixture of isomers) [Example 57, (S)-2-amino-2-((1s,3R)-3-(4-benzylbenzylamino)cyclobutyl)-6-boronohexanoic acid]
Human arginase I (ARG I)
  IC50: 26 to 100 nM
Arginase II (ARG II)
  IC50: 26 to 100 nM
human-Arginase-1
  IC50: 26000 to 100000 nM

## NC(CCCCB(O)O)(C(=O)O)[C@H]1C[C@@H](NCc2c(F)cc(-c3ccc(Cl)cc3)cc2F)C1 (mixture of isomers) [Example 58, (S)-2-amino-6-borono-2-((1s,3R)-3-((4′-chloro-3,5-difluorobiphenyl-4-yl)methylamino)cyclobutyl)hexanoic acid]
Human arginase I (ARG I)
  IC50: 26 to 100 nM
Arginase II (ARG II)
  IC50: 26 to 100 nM
human-Arginase-1
  IC50: 1000 to 25000 nM

## NC(CCCCB(O)O)(C(=O)O)[C@H]1C[C@@H](NCC2CCN(c3ccc(C(F)(F)F)cc3)CC2)C1 (mixture of isomers) [Example 60, (S)-2-amino-6-borono-2-((1s,3R)-3-((1-(4-(trifluoromethyl)phenyl)piperidin-4-yl)methylamino)cyclobutyl)hexanoic acid]
Human arginase I (ARG I)
  IC50: 0.1 to 25 nM
Arginase II (ARG II)
  IC50: 26 to 100 nM
human-Arginase-1
  IC50: 26000 to 100000 nM

## NC(CCCCB(O)O)(C(=O)O)[C@H]1CC[C@H](NCc2ccc(-c3ccccc3)cc2)C1 (stereo in doubt) [Example 43]
Human arginase I (ARG I)
  IC50: 26 to 100 nM
Arginase II (ARG II)
  IC50: 26 to 100 nM
human-Arginase-1
  IC50: 26000 to 100000 nM

## NC(CCCCB(O)O)(C(=O)O)[C@H]1C[C@@H](NC2Cc3ccccc3C2)C1 (stereo partly drawn) [Example 5, (S)-2-amino-6-borono-2-((1s,3R)-3-(2,3-dihydro-1H-inden-2-ylamino)cyclobutyl)hexanoic acid]
Human arginase I (ARG I)
  IC50: 0.1 to 25 nM
Arginase II (ARG II)
  IC50: 26 to 100 nM
human-Arginase-1
  IC50: 1000 to 25000 nM

## CC(C)(C)c1ccc(CN[C@H]2C[C@@H](C(N)(CCCCB(O)O)C(=O)O)C2)cc1 (stereo partly drawn) [Example 6, (S)-2-amino-6-borono-2-((1s,3R)-3-(4-tert-butylbenzylamino)cyclobutyl)hexanoic acid]
Human arginase I (ARG I)
  IC50: 26 to 100 nM
Arginase II (ARG II)
  IC50: 26 to 100 nM
human-Arginase-1
  IC50: 26000 to 100000 nM

## NC(CCCCB(O)O)(C(=O)O)[C@H]1C[C@@H](NCc2cccc(-c3ccc(C(F)(F)F)cc3)c2)C1 (stereo partly drawn) [Example 8, (S)-2-amino-6-borono-2-((1s,3R)-3-((4′-(trifluoromethyl)biphenyl-3-yl)methylamino)cyclobutyl)hexanoic acid]
Human arginase I (ARG I)
  IC50: 0.1 to 25 nM
Arginase II (ARG II)
  IC50: 0.1 to 25 nM
human-Arginase-1
  IC50: 1000 to 25000 nM

## NC(CCCCB(O)O)(C(=O)O)[C@H]1C[C@@H](NCc2cccc(-c3ccc(Cl)cc3)c2)C1 (stereo partly drawn) [Example 9, (S)-2-amino-6-borono-2-((1s,3R)-3-((4′-chlorobiphenyl-3-yl)methylamino)cyclobutyl)hexanoic acid]
Human arginase I (ARG I)
  IC50: 0.1 to 25 nM
Arginase II (ARG II)
  IC50: 0.1 to 25 nM
human-Arginase-1
  IC50: 26000 to 100000 nM

## NC(CCCCB(O)O)(C(=O)O)[C@H]1C[C@@H](NCc2ccc(F)c3ccccc23)C1 (stereo partly drawn) [Example 10, (S)-2-amino-6-borono-2-((1s,3R)-3-((4-fluoronaphthalen-1-yl)methylamino)cyclobutyl)hexanoic acid]
Human arginase I (ARG I)
  IC50: 0.1 to 25 nM
Arginase II (ARG II)
  IC50: 0.1 to 25 nM
human-Arginase-1
  IC50: 1000 to 25000 nM

## NC(CCCCB(O)O)(C(=O)O)[C@H]1C[C@@H](NCc2cccc3c(F)cccc23)C1 (stereo partly drawn) [Example 11, (S)-2-amino-6-borono-2-((1s,3R)-3-((5-fluoronaphthalen-1-yl)methylamino)cyclobutyl)hexanoic acid]
Human arginase I (ARG I)
  IC50: 0.1 to 25 nM
Arginase II (ARG II)
  IC50: 26 to 100 nM
human-Arginase-1
  IC50: 1000 to 25000 nM

## NC(CCCCB(O)O)(C(=O)O)[C@H]1C[C@@H](NCc2c3ccccc3cc3ccccc23)C1 (stereo partly drawn) [Example 12, (S)-2-amino-2-((1s,3R)-3-(anthracen-9-ylmethylamino)cyclobutyl)-6-boronohexanoic acid]
Human arginase I (ARG I)
  IC50: 26 to 100 nM
Arginase II (ARG II)
  IC50: 0.1 to 25 nM
human-Arginase-1
  IC50: 26000 to 100000 nM

## NC(CCCCB(O)O)(C(=O)O)[C@H]1C[C@@H](NCc2ccccc2N2CCOCC2)C1 (stereo partly drawn) [Example 13, (S)-2-amino-6-borono-2-((1s,3R)-3-(2-morpholinobenzylamino)cyclobutyl)hexanoic acid]
Human arginase I (ARG I)
  IC50: 26 to 100 nM
Arginase II (ARG II)
  IC50: 26 to 100 nM
human-Arginase-1
  IC50: 26000 to 100000 nM

## NC(CCCCB(O)O)(C(=O)O)[C@H]1C[C@@H](NCc2ccc3c(c2)CCO3)C1 (stereo partly drawn) [Example 15, (S)-2-amino-6-borono-2-((1s,3R)-3-((2,3-dihydrobenzofuran-5-yl)methylamino)cyclobutyl)hexanoic acid]
Human arginase I (ARG I)
  IC50: 26 to 100 nM
Arginase II (ARG II)
  IC50: 26 to 100 nM
human-Arginase-1
  IC50: 1000 to 25000 nM

## NC(CCCCB(O)O)(C(=O)O)[C@H]1C[C@@H](NCc2ccc(-c3ccc(Cl)c(Cl)c3)cc2)C1 (stereo partly drawn) [Example 16, (S)-2-amino-6-borono-2-((1s,3R)-3-((3′,4′-dichlorobiphenyl-4-yl)methylamino)cyclobutyl)hexanoic acid]
Human arginase I (ARG I)
  IC50: 0.1 to 25 nM
Arginase II (ARG II)
  IC50: 0.1 to 25 nM
human-Arginase-1
  IC50: 1000 to 25000 nM

## NC(CCCCB(O)O)(C(=O)O)[C@H]1C[C@@H](NCc2ccc(-c3ccc(Cl)cc3)cc2)C1 (stereo partly drawn) [Example 17, (S)-2-amino-6-borono-2-((1s,3R)-3-((4′-chlorobiphenyl-4-yl)methylamino)cyclobutyl)hexanoic acid]
Human arginase I (ARG I)
  IC50: 0.1 to 25 nM
Arginase II (ARG II)
  IC50: 0.1 to 25 nM
human-Arginase-1
  IC50: 1000 to 25000 nM

## NC(CCCCB(O)O)(C(=O)O)[C@H]1C[C@@H](NCc2ccc(-c3ccc(C(F)(F)F)cc3)cc2)C1 (stereo partly drawn) [Example 18, (S)-2-amino-6-borono-2-((1s,3R)-3-((4′-(trifluoromethyl)biphenyl-4-yl)methylamino)cyclobutyl)hexanoic acid]
Human arginase I (ARG I)
  IC50: 0.1 to 25 nM
Arginase II (ARG II)
  IC50: 0.1 to 25 nM
human-Arginase-1
  IC50: 1000 to 25000 nM

## NC(CCCCB(O)O)(C(=O)O)[C@H]1C[C@@H](NCc2ccc(-c3ccc(F)cc3)cc2)C1 (stereo partly drawn) [Example 19, (S)-2-amino-6-borono-2-((1s,3R)-3-((4′-fluorobiphenyl-4-yl)methylamino)cyclobutyl)hexanoic acid]
Human arginase I (ARG I)
  IC50: 0.1 to 25 nM
Arginase II (ARG II)
  IC50: 26 to 100 nM
human-Arginase-1
  IC50: 26000 to 100000 nM

## NC(CCCCB(O)O)(C(=O)O)[C@H]1C[C@@H](NCc2ccc(Oc3ccc(Cl)cc3)cc2)C1 (stereo partly drawn) [Example 21, (S)-2-amino-6-borono-2-((1s,3R)-3-(4-(4-chlorophenoxy)benzylamino)cyclobutyl)hexanoic acid]
Human arginase I (ARG I)
  IC50: 0.1 to 25 nM
Arginase II (ARG II)
  IC50: 0.1 to 25 nM
human-Arginase-1
  IC50: 26000 to 100000 nM
